PMC10580965 (Microbiology Spectrum, 2023)
Values after ≈ are worked out from the molar mass of the structure shown. Read-outs that look alike come from different tables or passages of the source. Bridge positions count the residues as written; N and C are the ends. Square brackets hold non-standard residues; d marks the D form. Peptide text beside a SMILES is read from it. * marks the point of attachment. Ileψ(thiazoline)Cys = CC[C@H](C)[C@H](N)C1=N[C@H](C(=O)*)CS1; dOrn = NCCC[C@@H](N)C(=O)O; X1 = CC[C@H](C)CCCCC(=O)*; Dab = NCC[C@H](N)C(=O)O

Columns and labels:
[1] = tested on: C. pseudotuberculosis ΔlysX
[2] = tested on: C. pseudotuberculosis ΔalaDAGS

Compound: CN[C@H](CC(C)C)C(=O)N[C@H]1C(=O)N[C@@H](CC(N)=O)C(=O)N[C@H]2C(=O)N[C@H]3C(=O)N[C@H](C(=O)N[C@H](C(=O)O)c4cc(O)cc(O)c4-c4cc3ccc4O)[C@H](O)c3ccc(c(Cl)c3)Oc3cc2cc(c3O[C@@H]2O[C@H](CO)[C@@H](O)[C@H](O)[C@H]2O[C@H]2C[C@](C)(N)[C@H](O)[C@H](C)O2)Oc2ccc(cc2Cl)[C@H]1O [Vancomycin]
- wt/ΔlysX (fold-change) [1]: 2 fold-change
- MIC ΔlysX ([1]; 24 h): 0.375 µg/mL (≈ 0.259 µM)
- MIC ΔalaDAGS ([2]; 24 h): 0.75 µg/mL (≈ 0.518 µM)

Compound: CNC(C)C1CCC(N)C(OC2C(N)CC(N)C(OC3OCC(C)(O)C(NC)C3O)C2O)O1 (stereo not shown) [Gentamicin]
- MIC ΔlysX [1]: 0.078 µg/mL (≈ 0.163 µM)

Compound: CO/N=C(\C(=O)N[C@@H]1C(=O)N2C(C(=O)O)=C(CSc3nc(=O)c(=O)[nH]n3C)CS[C@H]12)c1csc(N)n1 [Ceftriaxone]
- protective advantage conferred by lysX [1]: no protective advantage

Compound: CC[C@H](C)[C@H](N)C1=N[C@H](C(=O)N[C@@H](CC(C)C)C(=O)N[C@H](CCC(=O)O)C(=O)N[C@H](C(=O)N[C@H]2CCCCNC(=O)[C@H](CC(N)=O)NC(=O)[C@@H](CC(=O)O)NC(=O)[C@H](Cc3cnc[nH]3)NC(=O)[C@@H](Cc3ccccc3)NC(=O)[C@H]([C@@H](C)CC)NC(=O)[C@@H](CCCN)NC2=O)[C@@H](C)CC)CS1 [Bacitracin] ({Ileψ(thiazoline)Cys}-L[dE]IK[dOrn]I[dF]H[dD]N; lactam 4-C (inferred); N-terminus assumed)
- wt/ΔlysX (fold-change) [1]: 2 fold-change
- MIC ΔlysX ([1]; 24 h): 3.2 µg/mL (≈ 2.25 µM)
- MIC ΔalaDAGS ([2]; 24 h): 6.4 µg/mL (≈ 4.5 µM)

Compound: CC[C@H](C)[C@H](NC(=O)CN)C(=O)NCC(=O)N[C@@H](C)C(=O)N[C@H](C(=O)N[C@@H](CC(C)C)C(=O)N[C@@H](CCCCN)C(=O)N[C@H](C(=O)N[C@@H](CC(C)C)C(=O)N[C@H](C(=O)N[C@H](C(=O)NCC(=O)N[C@@H](CC(C)C)C(=O)N1CCC[C@H]1C(=O)N[C@@H](C)C(=O)N[C@@H](CC(C)C)C(=O)N[C@H](C(=O)N[C@@H](CO)C(=O)N[C@@H](Cc1c[nH]c2ccccc12)C(=O)N[C@H](C(=O)N[C@@H](CCCCN)C(=O)N[C@@H](CCCNC(=N)N)C(=O)N[C@@H](CCCCN)C(=O)N[C@@H](CCCNC(=N)N)C(=O)N[C@@H](CCC(N)=O)C(=O)N[C@@H](CCC(N)=O)C(N)=O)[C@@H](C)CC)[C@@H](C)CC)[C@@H](C)O)[C@@H](C)O)C(C)C)C(C)C [Melittin]
- wt/ΔlysX (fold-change) [1]: >4 fold-change
- MIC ΔlysX ([1]; 24 h): 10 µg/mL (≈ 3.51 µM)
- MIC ΔalaDAGS ([2]; 24 h): >40 µg/mL

Compound: NC[C@H]1O[C@H](O[C@H]2[C@H](O)[C@@H](O[C@H]3O[C@H](CO)[C@@H](O)[C@H](N)[C@H]3O)[C@H](N)C[C@@H]2N)[C@H](O)[C@@H](O)[C@@H]1O [Kanamycin]
- MIC ΔlysX [1]: 1.25 µg/mL (≈ 2.58 µM)
- wt/ΔlysX (fold-change) [1]: 8 fold-change
- MIC ΔalaDAGS [2]: 10 µg/mL (≈ 20.6 µM)

Compound: Nisin
- MIC ΔlysX [1]: 2.5 µg/mL
- wt/ΔlysX (fold-change) [1]: 32 fold-change
- MIC ΔalaDAGS [2]: 80 µg/mL

Compound: CCCNC[C@]1(O)[C@H](C)O[C@@H](O[C@H]2[C@H](C)[C@@H](O[C@@H]3O[C@H](C)C[C@H](N(C)C)[C@H]3O)[C@](C)(O)C[C@@H](C)CN[C@H](C)[C@@H](O)[C@](C)(O)[C@@H](CC)OC(=O)[C@@H]2C)C[C@@]1(C)OC [Tulathromycin]
- MIC ΔlysX [1]: 1.25 µg/mL (≈ 1.55 µM)
- wt/ΔlysX (fold-change) [1]: 2 fold-change
- MIC ΔalaDAGS [2]: 2.5 µg/mL (≈ 3.1 µM)

Compound: CC[C@H](C)CCCCC(=O)N[C@@H](CCN)C(=O)N[C@H](C(=O)N[C@@H](CCN)C(=O)N[C@H]1CCNC(=O)[C@H]([C@@H](C)O)NC(=O)[C@H](CCN)NC(=O)[C@H](CCN)NC(=O)[C@H](CC(C)C)NC(=O)[C@@H](Cc2ccccc2)NC(=O)[C@H](CCN)NC1=O)[C@@H](C)O [Polymyxin B] (X1-[Dab]T[Dab][Dab][Dab][dF]L[Dab][Dab]T; lactam 4-C (inferred); N-terminus assumed)
- MIC ΔlysX ([1]; 24 h): 10 µg/mL (≈ 8.31 µM)
- MIC ΔalaDAGS ([2]; 24 h): 640 µg/mL (≈ 532 µM)
